Laboratory results: US20070269832A1, “Novel affinity labels” (priority 2001, published 2007)
Peptide text beside a SMILES is read from it. * marks the point of attachment. Cbz = O=C(OCc1ccccc1)*; CH2F = FC*

How the values were obtained:
Assay type in all cases: cell-based, Human
HL-60 cells [1] = test: Labeling of untreated and CPT-treated HL-60 cells with FLISP (FFCK, FLCK) or FLICA reagents, fluorescence measured by LSC; details: for binding of the ligand by cells treated with CPT vs untreated cells (in words): HL-60, 3 h CPT, combined with PI
Experimental: Preparation of Reagents: Fluorescent Inhibitors of Serine Proteases (FLISP) reagents, 5(6)-Carboxyfluoresceinyl-L-phenylalanylchloromethyl ketone (FFCK) and 5(6)-carboxyfluoresceinyl-L-leucylchloromethyl ketone (FLCK) were dissolved initially in dimethyl sulfoxide (DMSO; Sigma) to yield a 10 mM concentration. Aliquots were made from this stock solution and stored frozen at −20° C. protected from light. This reagent stock was then diluted directly into the cell culture media to give a 1× working reagent concentration of 10 μM. Dilution of the reagent into aqueous (cell culture) media is done just prior to cell exposure to preserve the labile chloromethyl ketone reactivity of FLISP reagent.
Fluorescent inhibitors of caspases (FLICA) reagents, namely the fluorescein labeled VAD-FMK (FAM-VAD-FMK) and sulforhodamine labeled VAD-FMK (SR-VAD-FMK) (Immunochemistry Technologies; Bloomington, Minn.) were both designed to detect the presence of active caspases within apoptotic cells. These inhibitors were dissolved in DMSO to obtain a 150× concentrated stock solution. Aliquots of these solutions were stored at −20 °C in the dark. Prior to use, a 30× working solution of either FAM-VAD-FMK or SR-VAD-FMK was prepared by diluting the stock solution 1:5 in phosphate buffered saline (PBS) and mixing until the solution become clear. The 30× working solution was diluted 1:30 cell culture media to give a final 1× working reagent concentration of 10 μM.
(§1) Cells: Human promyelocytic leukemic HL-60 cells were obtained from American Type Culture Collection (ATCC; Rockville, Md.). […]
Cell staining and fluorescence measurement by LSC: The HL-60 cells from the untreated or CPT treated cultures were centrifuged (200 g, 5 min) and resuspended in PBS at approximately 10^4 cells per 5 ml volume. […]

HL-60 cells [2] = test: Dual labeling of CPT-treated HL-60 cells with SR-VAD-FMK and FFCK or FLCK (fluorescence microscopy / LSC); details: CPT-treated HL-60, dual labeling
Experimental: Cell staining and fluorescence measurement by LSC: The HL-60 cells from the untreated or CPT treated cultures were centrifuged (200 g, 5 min) and resuspended in PBS at approximately 10^4 cells per 5 ml volume. Cells were then attached electrostatically to microscope slides as described before (Bedner et al., Exp Cell Res., 2000, 259:308-313; Smolewski et al., Cytometry, 2001, 44:73-82). Briefly, the attachment was achieved by the incubation (15 min) of cells suspended in serum-free PBS in shallow (<1 mm depth; 1.5×1.5 cm) wells on horizontally placed microscope slides that were rinsed in 100% ethanol and air dried prior to use, at 100% humidity. The electrostatically attached cells remain viable, exclude such dyes as trypan blue and propidium iodide (PI), and have unchanged morphology for several hours (Bedner et al., Exp Cell Res., 2000, 259:308-313). After the cells became attached, PBS was removed from the wells and was replaced by 150 μL of the culture medium containing 10% FCS. FLISP staining solutions were prepared by diluting 5 μL of the 10 mM FFCK or FLCK stock solution into 5 mL of culture medium yielding a final FLISP concentration 10 μM. The medium from above the cells on the slide was then replaced with 150 μL of this staining solution. A polyethylene foil (2.5×2.5 cm) was positioned over the staining solution to prevent drying. The slides were subsequently incubated for 1 h at 37° C. in a closed box with wet tissue to additionally prevent drying. […] The slides were placed on the motorized stage of a laser scanning microscope (LSC; Kamentsky, L. A., Methods Cell Biol, 2001, 63:51-87; Darzynkiewicz et al., Exp Cell Res, 1999, 249:1-12) for fluorescence measurement. Cell fluorescence was then measured using a 488 nm excitation laser line and recording integral and maximal pixel intensities of green FFCK or FLCK. FLICA staining was measured under the same conditions as FLISP staining. Fluorescence can also be measured by flow cytometer and fluorescence microscopy. […]

HL-60 cells [3] = test: Pretreatment of HL-60 cells with unlabeled protease inhibitors during CPT induction of apoptosis, then binding of FAM-VAD-FMK, FFCK or FLCK measured by LSC; details: HL-60, CPT 3 h in presence of the unlabeled inhibitor; mean (SE) of three experiments
Experimental: Unlabeled (cold) N-tosyl-phenylalanylchloromethyl ketone (TPCK) and N-tosyl-lysylchloromethyl keytone (TLCK) were obtained from Sigma Chemical Co.; concentrated solutions at 10 mM were freshly prepared in DMSO. Further dilutions were made in tissue culture media.
The non-fluorescent poly-caspase inhibitor Z-VAD-FMK was obtained from Enzyme Systems Products. A 20 mM stock solution of Z-VAD-FMK was made in DMSO (Sigma) and the inhibitor was then diluted in culture media to obtain the final 50 μM concentration in the cultures.
as §1
Cell staining and fluorescence measurement by LSC: The HL-60 cells from the untreated or CPT treated cultures were centrifuged (200 g, 5 min) and resuspended in PBS at approximately 10^4 cells per 5 ml volume. […] The slides were placed on the motorized stage of a laser scanning microscope (LSC; Kamentsky, L. A., Methods Cell Biol, 2001, 63:51-87; Darzynkiewicz et al., Exp Cell Res, 1999, 249:1-12) for fluorescence measurement. Cell fluorescence was then measured using a 488 nm excitation laser line and recording integral and maximal pixel intensities of green FFCK or FLCK. FLICA staining was measured under the same conditions as FLISP staining. Fluorescence can also be measured by flow cytometer and fluorescence microscopy. […]

Molecule | binding of the ligand by cells treated with CPT vs untreated cells (in words) (HL-60 cells [1]) | fluorescence of labeled cells (intensity and distribution, in words) (HL-60 cells [2]) | fluorescence intensity of FLCK labeled cells, greater compared to FFCK labeled cells (HL-60 cells [1]; identical settings of the photomultiplier sensitivity) | percent decrease in frequency of FAM-VAD-FMK labeled cells (caspase activation) vs CPT without unlabeled inhibitor (HL-60 cells [3])
5(6)-Carboxyfluoresceinyl-L-phenylalanylchloromethyl ketone [FFCK] | induced binding | strong | – | –
5(6)-carboxyfluoresceinyl-L-leucylchloromethyl ketone [FLCK] | induced binding | faint and more uniformly distributed | approximately 60% | –
COC(=O)C[C@H](NC(=O)[C@H](C)NC(=O)[C@@H](NC(=O)OCc1ccccc1)C(C)C)C(=O)CF [Z-VAD-FMK] (Cbz-Val-Ala-Asp(OMe)-CH2F) | – | – | – | 95.0%
Sulforhodaminyl-L-valylalanylaspartylflyoromethyl ketone [SR-VAD-FMK, reference compound] | – | uniformly dispersed | – | –
